Experimental data: patent US8710064B2, “2-aryl-4-quinazolinones and their pharmaceutical compositions” (China Medical University, priority 2011, dated 2014)

Tests used:
[1] = test system: glioma cell lines C6, RT2, U87, U251, U373 and T98G; experiment: MTS cell viability assay, glioma cell lines; assay type: cell-based, rat and human
Experimental: The human glioma cell lines U87, U251, T98G, U373, and rat glioma cell line RT2 provided by Dr. Michael Hsiao (Genomics Research Center, Academia Sinica, Taiwan) were cultured in Dulbecco's Modified Eagle medium (DMEM) (Caisson) supplemented with 10% fetal bovine serum (FBS) (Sigma-Aldrich), 2 mM L-glutamine (Caisson), 100 U/ml penicillin, and 100 μg/ml streptomycin (Caisson). The rat glioma C6 cell line provided by Dr. Shun-Fen Tzeng (National Cheng Kung University, Taiwan) was cultured in DMEM/F12 (Caisson) supplemented with 10% fetal bovine serum, 2 mM L-glutamine, 100 U/ml penicillin, and 100 μg/ml streptomycin. The human normal glia cell line SVGP12, kindly provided by Dr. Michael Hsiao, was cultured in Minimum Essential Medium (MEM) (Invitrogen) supplemented with 10% fetal bovine serum, 2 mM L-glutamine, 100 U/ml penicillin, and […]. Primary glia cells were prepared by surgery. […]
Cell proliferation was determined by MTS (tetrazolium compound, 3-(4,5-dimethylthiazol-2-yl)-5-(3-carboxymethoxyphenyl)-2-(4-sulfophenyl)-2H-tetrazolium) assay (Promega). […] The absorbance of soluble formazan was measured at 490 nm with microplate reader (Molecular device). The cell viability was determined by the percentage of the absorption relative to untreated control. […]
The effects of MJ-66 on other glioma cell lines were further examined. […] Cell viability was assessed by MTS assay (mean±SEM, n=3). […]

Hep3B = experiment: trypan blue exclusion assay, Hep3B cells; assay type: cell-based; conditions: Hep3B human hepatoma
Experimental: Hep3B (human hepatocellular carcinoma) and H460 (lung non-small carcinoma) cells were grown in monolayer culture in Dulbecco's modified Eagle's medium (DMEM) (Life Technologies, Rockville, Md., USA) containing 5% fetal bovine serum (HyClone, Logan, Utah, USA), 100 U/ml penicillin and 100 μg/ml streptomycin (Gibco BRL, Rockville, Md., USA) and 2 mM glutamine (Merck, Darmstadt, Germany).
(§1) Cell viability was also determined by trypan-blue exclusion assay. Cells were seeded in 6-well plates (2×10^4/well) for trypan blue exclusion assay, and incubated for 24 hours at 37° C. Culture medium containing test compound or DMSO (0.006%) was added to each well, and cells were incubated at 37° C. At indicated time points (0, 24, 48, 72 and 96 hr), cells were suspended with 0.05% trypsin-EDTA, and stained with trypan-blue dye (0.4%) (Sigma). The cell viability was evaluated by the percentage of death relative to the total cell, and cell growth curve was determined by number of live cells relative to the total number of cells.
The anti-proliferation effects of Compounds 17-31 on M21, CH27, H460, Hep3B and HSC-3 cells were evaluated by the trypan blue exclusion assay.

C6 glioma cells [2] = experiment: trypan blue exclusion cell death assay, C6 glioma cells; assay type: cell-based, rat; conditions: 60 nM, at the 72nd hour, p<0.05 versus control
Experimental: as §1
To investigate the glioma cell death induced by MJ-66, cell viability was assessed by trypan blue exclusion assay. C6 and U87 glioma cells treated with MJ-66 (30, 60, 90 nM) or DMSO (0.009%) for 0, 24, 48, 72 and 96 hours (hr) were observed under bright field microscope (FIG. 4A). The percentages of cell death and cell growth curve were determined by trypan blue assay followed by cell counting (mean±SEM, n=3). Relative to total cell number, trypan blue positive cells were defined as dead cells.

C6 glioma cells [3] = experiment: cell cycle assay by flow cytometry with propidium iodide; assay type: cell-based, rat; conditions: 60 nM
Experimental: To analyze cellular DNA content by flow cytometry, 3×10^5 cells were seeded in 10 cm dish and incubated for 24 hours at 37° C. […] At indicated time points (0, 6, 12, 24 and 48 hr), over 10^6 cells were suspended with 0.05% trypsin-EDTA, and fixed in 70% ethanol over 1 hour at −20° C. After washed by phosphate-buffered saline (PBS) twice, cells were then suspended with 1 ml propidium iodide/Triton-X 100 staining solution (20 μg/ml PI, 0.1% Triton-X 100 and 0.2 mg/ml ribonuclease A (RNase A, Sigma) in PBS) and incubated for 30 minutes at room temperature in the dark. After filtered by 35 μm nylon mesh (Falcon, 352235), the DNA content was then analyzed by flow cytometry (FACS can, BD Bioscience). The cell-cycle distribution (subG1, G1, S, G2/M, and >4N DNA content) of ten thousand cells was analyzed by WinMDI software.
To investigate the cell cycle distribution of MJ-66-treated glioma cell, C6 glioma cells were treated with 60 nM MJ-66 for 0, 6, 12, 24, 36 and 48 hours, and the cell cycle distributions of the percentages of cells at subG1, G1, S and G2/M phases and DNA content of cells were monitored by flow cytometry with propidium iodide staining.

O=c1[nH]c(-c2cccc3ccccc23)nc2ccc(N3CCCC3)cc12 [Compound 23, 6-(Pyrrolidin-1-yl)-2-(naphthalen-1-yl)quinazolin-4-one]
survival rates of glioma cell lines ([1]; 0.00625-1 μM, 24, 48 and 72 hr, MTS assay): decreased in a time- and concentration-dependent manner | IC50 ([1]; Glioma cell, in vitro, read-out: IC50, growth of glioma cells): ~60 nM | IC50 (Hep3B): 1350 nM | percentage of dead cells, C6 (C6 glioma cells [2]): significantly induced | G2/M cell population (C6 glioma cells [3]; after 6 and 12 hours): significantly increased | sub G1 and >4N DNA content cell population (C6 glioma cells [3]; after 24, 36 and 48 hours, time-dependent): increased
